# Reference: PubChem BioAssay (NCI)
#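 Five compound concentrations were applied to cells in 96-well plates for 48 hours; endpoints were derived by simple linear interpolation of the resulting dose-response curve. Abbreviation: GI50, concentration required for 50% inhibition of growth. At the TGI there is no net growth.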
# Key:
# Experiment in all cases: NCI tumour cell line growth inhibition, 48 h
# SR leukemia = test system: SR leukemia
# MDA-MB-231 breast = test system: MDA-MB-231 breast
# K-562 leukemia = test system: K-562 leukemia
# SK-MEL-28 melanoma = test system: SK-MEL-28 melanoma
# MCF7 breast = test system: MCF7 breast
# TK-10 renal = test system: TK-10 renal
# KM12 colon = test system: KM12 colon
# A549 NSCLC = test system: A549 NSCLC
# RXF 393 renal = test system: RXF 393 renal
# HCT-15 colon = test system: HCT-15 colon
# EKVX NSCLC = test system: EKVX NSCLC
# SK-MEL-5 melanoma = test system: SK-MEL-5 melanoma
# HCC-2998 colon = test system: HCC-2998 colon
# MOLT-4 leukemia = test system: MOLT-4 leukemia
# UACC-62 melanoma = test system: UACC-62 melanoma
# CAKI-1 renal = test system: CAKI-1 renal
# SF-268 CNS = test system: SF-268 CNS
# HOP-92 NSCLC = test system: HOP-92 NSCLC
# UO-31 renal = test system: UO-31 renal
# CCRF-CEM leukemia = test system: CCRF-CEM leukemia
# SF-295 CNS = test system: SF-295 CNS
# HOP-62 NSCLC = test system: HOP-62 NSCLC
# LOX IMVI melanoma = test system: LOX IMVI melanoma
# DU-145 prostate = test system: DU-145 prostate
# UACC-257 melanoma = test system: UACC-257 melanoma
# BT-549 breast = test system: BT-549 breast
# M14 melanoma = test system: M14 melanoma
# NCI-H460 lung = test system: NCI-H460 lung
# RPMI-8226 leukemia = test system: RPMI-8226 leukemia
# SNB-19 CNS = test system: SNB-19 CNS
# MALME-3M melanoma = test system: MALME-3M melanoma
# SNB-75 CNS = test system: SNB-75 CNS
# 786-0 renal = test system: 786-0 renal
# SF-539 CNS = test system: SF-539 CNS
# NCI-H23 lung = test system: NCI-H23 lung
# NCI-H522 lung = test system: NCI-H522 lung
# HCT-116 colon = test system: HCT-116 colon
# U251 CNS = test system: U251 CNS
# OVCAR-5 ovarian = test system: OVCAR-5 ovarian
# OVCAR-8 ovarian = test system: OVCAR-8 ovarian
# HL-60(TB) leukemia = test system: HL-60(TB) leukemia
# MDA-MB-435 = test system: MDA-MB-435
# NCI/ADR-RES ovarian = test system: NCI/ADR-RES ovarian
# IGROV1 ovarian = test system: IGROV1 ovarian
# ACHN renal = test system: ACHN renal
# SK-MEL-2 melanoma = test system: SK-MEL-2 melanoma
# T-47D breast = test system: T-47D breast
# OVCAR-4 ovarian = test system: OVCAR-4 ovarian
# COLO 205 colon = test system: COLO 205 colon
# HT29 colon = test system: HT29 colon
# NCI-H226 lung = test system: NCI-H226 lung
# SN12C renal = test system: SN12C renal
# PC-3 prostate = test system: PC-3 prostate
# HS 578T breast = test system: HS 578T breast
# A498 renal = test system: A498 renal
# OVCAR-3 ovarian = test system: OVCAR-3 ovarian
# SK-OV-3 ovarian = test system: SK-OV-3 ovarian
# SW-620 colon = test system: SW-620 colon
compound,measurement,setting,value
O=C(O[C@H]1CN[C@H](C#Cc2cc3ncnc(Nc4ccc5c(cnn5Cc5ccccc5)c4)c3s2)C1)N1CCOCC1,GI50,SR leukemia,7.53 µM
same,TGI,SR leukemia,> 25 µM
same,GI50,MDA-MB-231 breast,1.8 µM
same,TGI,MDA-MB-231 breast,> 25 µM
same,GI50,K-562 leukemia,6.99 µM
same,TGI,K-562 leukemia,> 25 µM
same,GI50,SK-MEL-28 melanoma,9.34 µM
same,TGI,SK-MEL-28 melanoma,> 25 µM
same,GI50,MCF7 breast,5.91 µM
same,TGI,MCF7 breast,> 25 µM
same,GI50,TK-10 renal,0.131 µM
same,TGI,TK-10 renal,1.83 µM
same,GI50,KM12 colon,4.63 µM
same,TGI,KM12 colon,10.5 µM
same,GI50,A549 NSCLC,3.71 µM
same,TGI,A549 NSCLC,> 25 µM
same,GI50,RXF 393 renal,1.15 µM
same,TGI,RXF 393 renal,11.5 µM
same,GI50,HCT-15 colon,2.37 µM
same,TGI,HCT-15 colon,> 25 µM
same,GI50,EKVX NSCLC,0.234 µM
same,TGI,EKVX NSCLC,> 11.4 µM
same,GI50,SK-MEL-5 melanoma,6.18 µM
same,TGI,SK-MEL-5 melanoma,> 25 µM
same,GI50,HCC-2998 colon,5 µM
same,TGI,HCC-2998 colon,> 25 µM
same,GI50,MOLT-4 leukemia,4.22 µM
same,TGI,MOLT-4 leukemia,> 23.6 µM
same,GI50,UACC-62 melanoma,5.74 µM
same,TGI,UACC-62 melanoma,> 25 µM
same,GI50,CAKI-1 renal,0.602 µM
same,TGI,CAKI-1 renal,> 11.3 µM
same,GI50,SF-268 CNS,4.43 µM
same,TGI,SF-268 CNS,24.5 µM
same,GI50,HOP-92 NSCLC,1.29 µM
same,TGI,HOP-92 NSCLC,> 25 µM
same,GI50,UO-31 renal,0.536 µM
same,TGI,UO-31 renal,13.3 µM
same,GI50,CCRF-CEM leukemia,3.15 µM
same,TGI,CCRF-CEM leukemia,> 25 µM
same,GI50,SF-295 CNS,7.49 µM
same,TGI,SF-295 CNS,> 25 µM
same,GI50,HOP-62 NSCLC,4.86 µM
same,TGI,HOP-62 NSCLC,> 25 µM
same,GI50,LOX IMVI melanoma,5.88 µM
same,TGI,LOX IMVI melanoma,> 25 µM
same,GI50,DU-145 prostate,2.16 µM
same,TGI,DU-145 prostate,> 22.9 µM
same,GI50,UACC-257 melanoma,7.45 µM
same,TGI,UACC-257 melanoma,> 25 µM
same,GI50,BT-549 breast,3.35 µM
same,TGI,BT-549 breast,9.29 µM
same,GI50,M14 melanoma,5.22 µM
same,TGI,M14 melanoma,> 25 µM
same,GI50,NCI-H460 lung,7.26 µM
same,TGI,NCI-H460 lung,> 25 µM
same,GI50,RPMI-8226 leukemia,5.38 µM
same,TGI,RPMI-8226 leukemia,20.4 µM
same,GI50,SNB-19 CNS,7.71 µM
same,TGI,SNB-19 CNS,> 25 µM
same,GI50,MALME-3M melanoma,4.79 µM
same,TGI,MALME-3M melanoma,23.7 µM
same,GI50,SNB-75 CNS,2.01 µM
same,TGI,SNB-75 CNS,> 23 µM
same,GI50,786-0 renal,7.16 µM
same,TGI,786-0 renal,> 25 µM
same,GI50,SF-539 CNS,4.18 µM
same,TGI,SF-539 CNS,> 19.1 µM
same,GI50,NCI-H23 lung,11.3 µM
same,TGI,NCI-H23 lung,> 25 µM
same,GI50,NCI-H522 lung,0.195 µM
same,TGI,NCI-H522 lung,4.26 µM
same,GI50,HCT-116 colon,3.74 µM
same,TGI,HCT-116 colon,> 25 µM
same,GI50,U251 CNS,6.03 µM
same,TGI,U251 CNS,> 25 µM
same,GI50,OVCAR-5 ovarian,1.64 µM
same,TGI,OVCAR-5 ovarian,> 25 µM
same,GI50,OVCAR-8 ovarian,6.4 µM
same,TGI,OVCAR-8 ovarian,> 25 µM
same,GI50,HL-60(TB) leukemia,6.74 µM
same,TGI,HL-60(TB) leukemia,> 20.4 µM
same,GI50,MDA-MB-435,6.08 µM
same,TGI,MDA-MB-435,> 25 µM
same,GI50,NCI/ADR-RES ovarian,9.55 µM
same,TGI,NCI/ADR-RES ovarian,> 25 µM
same,GI50,IGROV1 ovarian,0.805 µM
same,TGI,IGROV1 ovarian,> 18.7 µM
same,GI50,ACHN renal,0.586 µM
same,TGI,ACHN renal,> 25 µM
same,GI50,SK-MEL-2 melanoma,4.31 µM
same,TGI,SK-MEL-2 melanoma,19.3 µM
same,GI50,T-47D breast,2.89 µM
same,TGI,T-47D breast,> 25 µM
same,GI50,OVCAR-4 ovarian,5.3 µM
same,TGI,OVCAR-4 ovarian,> 25 µM
same,GI50,COLO 205 colon,3.78 µM
same,TGI,COLO 205 colon,8.7 µM
same,GI50,HT29 colon,3.92 µM
same,TGI,HT29 colon,11.5 µM
same,GI50,NCI-H226 lung,5.37 µM
same,TGI,NCI-H226 lung,> 25 µM
same,GI50,SN12C renal,2.46 µM
same,TGI,SN12C renal,> 25 µM
same,GI50,PC-3 prostate,7.36 µM
same,TGI,PC-3 prostate,> 25 µM
same,GI50,HS 578T breast,0.78 µM
same,TGI,HS 578T breast,> 17 µM
same,GI50,A498 renal,0.998 µM
same,TGI,A498 renal,15.3 µM
same,GI50,OVCAR-3 ovarian,3.1 µM
same,TGI,OVCAR-3 ovarian,10.6 µM
same,GI50,SK-OV-3 ovarian,0.0182 µM
same,TGI,SK-OV-3 ovarian,> 12.7 µM
same,GI50,SW-620 colon,8.57 µM
same,TGI,SW-620 colon,> 25 µM
